Data published in ChEMBL document CHEMBL2424659, “Comparative QSAR and pharmacophore analysis for a series of 2,4-dihydro-3H-1,2,4-triazol-3-ones derivatives as angiotensin II AT1 receptor antagonists” (Med Chem Res, 2013).

Molecular target: T1, Type-1 angiotensin II receptor (Oryctolagus cuniculus, UniProt P34976)
T1 sequence (P34976 whole entry): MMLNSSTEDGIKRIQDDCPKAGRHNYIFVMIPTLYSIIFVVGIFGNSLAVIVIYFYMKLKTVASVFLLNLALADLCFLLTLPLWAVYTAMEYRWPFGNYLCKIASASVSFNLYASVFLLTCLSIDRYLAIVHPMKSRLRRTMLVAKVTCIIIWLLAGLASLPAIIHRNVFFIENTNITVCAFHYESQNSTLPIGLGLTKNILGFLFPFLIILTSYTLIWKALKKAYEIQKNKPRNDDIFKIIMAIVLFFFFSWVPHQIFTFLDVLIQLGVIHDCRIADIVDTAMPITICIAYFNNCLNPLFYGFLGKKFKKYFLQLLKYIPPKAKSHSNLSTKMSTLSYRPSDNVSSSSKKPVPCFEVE
Experiment: Antagonist activity at AT1 receptor in rabbit aorta membranes
Format: cell membranes, Membrane

## CCCCC(=O)Nc1ccc(C)c(-n2nc(CCCC)n(Cc3ccc(-c4ccccc4S(=O)(=O)NC(=O)c4ccccc4Cl)cc3)c2=O)c1
  IC50: 24 nM
